Numbering of substitutions follows the chain as printed. Where a SMILES comes first, the peptide text is derived from it.

Format in all cases: cell-based, rabbit
Experiment [1] has as its target T1, Y167Q-rPepT1 (Oryctolagus cuniculus, UniProt P36836, Y167Q).
T1 construct: expressed in transfected cells; host or cells: Xenopus laevis oocytes injected with cRNA
T1 sequence (P36836 1-707 Y167Q): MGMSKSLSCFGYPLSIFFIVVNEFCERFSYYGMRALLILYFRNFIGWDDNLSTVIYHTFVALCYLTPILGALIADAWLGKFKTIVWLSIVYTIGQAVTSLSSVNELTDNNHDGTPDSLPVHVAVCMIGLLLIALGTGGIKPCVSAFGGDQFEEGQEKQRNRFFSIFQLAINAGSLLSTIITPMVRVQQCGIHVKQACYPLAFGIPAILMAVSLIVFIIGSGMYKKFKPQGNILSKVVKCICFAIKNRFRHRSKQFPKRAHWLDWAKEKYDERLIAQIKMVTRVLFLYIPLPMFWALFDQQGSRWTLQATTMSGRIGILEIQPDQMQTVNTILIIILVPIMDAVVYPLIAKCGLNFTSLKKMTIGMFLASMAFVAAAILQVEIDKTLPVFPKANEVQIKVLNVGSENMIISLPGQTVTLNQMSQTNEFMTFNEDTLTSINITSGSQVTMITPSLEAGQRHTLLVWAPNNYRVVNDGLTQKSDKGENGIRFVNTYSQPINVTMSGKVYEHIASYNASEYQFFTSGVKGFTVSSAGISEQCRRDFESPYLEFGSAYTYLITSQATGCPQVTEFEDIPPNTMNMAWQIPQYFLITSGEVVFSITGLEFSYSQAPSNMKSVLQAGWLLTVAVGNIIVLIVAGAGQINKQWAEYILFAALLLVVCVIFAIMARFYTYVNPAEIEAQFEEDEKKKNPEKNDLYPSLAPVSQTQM
Kind of experiment: Uptake of tracer [3H]-D-Phe-L-Gln into Xenopus oocytes. The settings on record: both pHout 5.5 and 7.4. How it is done: (§1) rPepT1 constructs were linearised with XbaI (New England Biolabs, UK) and cRNA generated by in vitro transcription (T7 mMessage mMachine, Ambion, Cambridgeshire, UK). Xenopus laevis oocytes were obtained under MS222 anaesthesia (0.2%, w/v) in accordance with the UK Animals (Scientific Procedures) Act, 1986, and maintained at 18 °C in modified Barth's medium (88 mM NaCl, 1 mM KCl, 0.82 mM MgSO4, 2.4 mM NaHCO3, 0.42 mM CaCl2, 10 mM Hepes, 5 mM sodium pyruvate, 50 μg ml^−1 gentamicin (Fluka, Poole, UK), adjusted to pH 7.6 with 1 M NaOH). Transport measurements were performed at least 72 h after micro-injection of oocytes with 27nl cRNA (1 μg/μl), with medium changed daily.
(§2) Uptake of [^3H]-D-Phe-L-Gln (17.4 Ci/mmole, custom synthesised, Cambridge Research Biochemicals, Stockton-on-Tees, UK) was performed as previously described ([Meredith, 2004]). Briefly, 5 oocytes were incubated in 100 μl of uptake medium (95 mM NaCl, 2 mM KCl, 1 mM CaCl2, 0.42 mM MgCl2, 10 mM Tris/Hepes pH 7.4 or Tris/Mes pH 5.5) with tracer (0.4 μM) [^3H]-D-Phe-L-Gln. After incubation, the oocytes were washed sequentially five times in 1 ml of ice-cold 120 mM NaCl solution, lysed individually with 100 μl 2% (w/v) SDS and liquid scintillation counted. As a control non-injected oocytes were also incubated in uptake medium with D-Phe-L-Gln as above.

Experiment [2] deals with T2, Y56F-rPepT1 (Oryctolagus cuniculus, UniProt P36836, Y56F).
T2 construct: expressed in transfected cells; host or cells: Xenopus laevis oocytes injected with cRNA
T2 sequence (P36836 1-707 Y56F): T1 sequence (P36836 1-707 Y167Q) with Y56F, Q167Y
The description is as above. The following applies: pHout 5.5; 1 h. How it is done:
as §1, §2

Experiment [3] deals with T3, Y91F-rPepT1 (Oryctolagus cuniculus, UniProt P36836, Y91F).
T3 construct: expressed in transfected cells; host or cells: Xenopus laevis oocytes injected with cRNA
T3 sequence (P36836 1-707 Y91F): T1 sequence (P36836 1-707 Y167Q) with Y91F, Q167Y
Kind of experiment: Competition of [3H]-D-Phe-L-Gln uptake into Xenopus oocytes, Ki. The settings on record: against 0.4 μM [3H]-D-Phe-L-Gln uptake. How it is done: as §1, §2
The affinity of wild-type and mutant rPepT1 transporters were assessed by competition studies with 0.4 μM [^3H]-D-Phe-L-Gln and Gly-L-Gln present in the uptake medium in concentrations from 0 to 2 mM using the protocol above, and the Ki calculated using the method of [Deves and Boyd (1989)].

[^3H]-D-Phe-L-Gln: the “reduction of uptake compared to the wild-type” value in experiment [1] is reported as over 90%. Also, the “decrease in rate of uptake compared to the wild-type” value in experiment [2] was about 90%.
On to `NCC(=O)N[C@@H](CCC(N)=O)C(=O)O` [Gly-L-Gln] (H-Gly-Gln-OH), for which the values for the Ki in experiment [3] (pHout 5.5) and in experiment [3] (pHout 7.4) were 1400 ± 310 µM and 460 ± 90 µM, respectively.

By Ki is commonly meant a measure of affinity in units of concentration, obtained from inhibition or displacement. Read a high Ki as weaker binding.

Source of the values: article PMC3510438, “The transmembrane tyrosines Y56, Y91 and Y167 play important roles in determining the affinity and transport rate of the rabbit proton-coupled peptide transporter PepT1” (The International Journal of Biochemistry & Cell Biology, 2009).
